This assay deals with T1, Dihydrofolate reductase (Enterococcus faecium) (UniProt P00380).
T1 sequence (whole entry): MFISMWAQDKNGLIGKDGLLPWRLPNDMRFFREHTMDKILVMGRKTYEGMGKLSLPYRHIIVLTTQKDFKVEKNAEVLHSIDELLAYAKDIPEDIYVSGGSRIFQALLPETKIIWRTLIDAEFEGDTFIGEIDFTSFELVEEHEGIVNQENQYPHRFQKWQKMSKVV
Description: Inhibition of Streptococcus faecium dihydrofolate reductase using dihydrofolate as substrate
On to `CCOC(=O)c1ccc(CNc2ccc3nc(N)nc(N)c3c2)cc1`, for which the log(1/I50) worked out at 7.34. The value for `Oc1nc(S)nc2ccc(Sc3ccc4ccccc4c3)cc12` was 3.85; that for `Nc1nc(N)c2c(CSc3ccc4ccccc4c3)cccc2n1` was 7.55.

Molecule `Nc1nc(O)c2cc(S(=O)(=O)c3ccc4ccccc4c3)ccc2n1` displayed a log(1/I50) of 6.3. As for `Nc1nc(O)c2c(Sc3ccc4ccccc4c3)cccc2n1`, the log(1/I50) came out at 4.68. `Nc1nc(N)c2cc([S+]([O-])c3ccc4ccccc4c3)ccc2n1` (stereo not given) showed a log(1/I50) of 8.7. The value for `Nc1nc(N)c2c(S(=O)(=O)c3ccc4ccccc4c3)cccc2n1` was 4.05. `Nc1nc(S)c2cc(Sc3ccc4ccccc4c3)ccc2n1` came in with a log(1/I50) of 6.1. For `Nc1nc(N)c2c(CSc3ccc(Cl)cc3)cccc2n1` the value was 7.24; for `Nc1nc(N)c2c([S+]([O-])c3ccc(Cl)c(Cl)c3)cccc2n1` (stereo not given), 4.65.

`Nc1nc(N)c2c(Cl)c(CNc3ccc(C(=O)O)cc3)ccc2n1` gave a log(1/I50) of 8.27. The value for `Cc1c(CNc2ccc(C(=O)NC(CC(=O)O)C(=O)O)cc2)ccc2nc(N)nc(N)c12` (stereo not given) was 8.6; that for `Nc1nc(N)c2cc(Sc3cccc(C(F)(F)F)c3)ccc2n1` was 9.15. For `CCOC(=O)c1ccc(NCc2ccc3nc(N)nc(N)c3c2Cl)cc1` the value was 8.64; for `Nc1ncnc2ccc(S(=O)(=O)c3ccc4ccccc4c3)cc12`, 3.51; for `Nc1nc(N)c2c([S+]([O-])c3ccc4ccccc4c3)cccc2n1` (stereo not given), 4.36. The value for `CCOC(=O)c1ccc(NCc2ccc3nc(N)nc(N)c3c2C)cc1` was 8.29; that for `CCCCOC(=O)c1ccc(NCc2ccc3nc(N)nc(N)c3c2Cl)cc1` was 7.68; that for `Sc1nc(S)c2cc(Sc3ccc4ccccc4c3)ccc2n1` was 3.65. The molecule `Nc1nc(O)c2cc(Sc3ccc4ccccc4c3)ccc2n1` came in with a log(1/I50) of 6.74. The value for `Nc1ncnc2ccc(Sc3ccc4ccccc4c3)cc12` was 4.07; that for `Nc1nc(O)nc2ccc(Sc3ccc4ccccc4c3)cc12` was 4.34.

`CCOC(=O)c1ccc(CNc2ccc3nc(N)nc(N)c3c2Cl)cc1` had a log(1/I50) of 8.2. As to `Nc1nc(O)c2cc([S+]([O-])c3ccc4ccccc4c3)ccc2n1` (stereo not given), the log(1/I50) worked out at 5.28. The molecule `CCOC(=O)c1ccc(CNc2ccc3nc(N)nc(O)c3c2C)cc1` came in with a log(1/I50) of 4.52. The value for `Nc1nc(N)c2c(Sc3ccc(Cl)c(Cl)c3)cccc2n1` was 6.54; that for `Nc1nc(O)c2cc(CNc3ccc(C(=O)O)cc3)ccc2n1` was 5.74. `O=c1[nH]c(=O)c2cc(Sc3ccc4ccccc4c3)ccc2[nH]1` displayed a log(1/I50) of 4.32.

With `Nc1nc(N)c2cc(S(=O)(=O)c3ccc4ccccc4c3)ccc2n1`, the log(1/I50) turned out to be 8.4. Molecule `Nc1nc(N)c2cc(S(=O)(=O)c3ccc(Cl)c(Cl)c3)ccc2n1` came in with a log(1/I50) of 9.15. For `CCOC(=O)c1ccc(NCc2ccc3nc(N)nc(N)c3c2)cc1` the value was 7.68. For `Nc1nc(O)c2c(S(=O)(=O)c3ccc4ccccc4c3)cccc2n1` the value was 5.85; for `CCOC(=O)c1ccc(NCc2ccc3nc(N)nc(O)c3c2)cc1`, 7.07.

As for `Nc1nc(N)c2c(CCc3ccc4ccccc4c3)cccc2n1`, the log(1/I50) stood at 8.

Turning to `Nc1nc(N)c2c(/C=C/c3ccc4ccccc4c3)cccc2n1`, the log(1/I50) came to 7.12. With `Nc1nc(N)c2c(/C=C\c3ccc4ccccc4c3)cccc2n1`, the log(1/I50) came out at 7.43. In the case of `CCCCOC(=O)c1ccc(NCc2ccc3nc(N)nc(N)c3c2C)cc1`, the log(1/I50) came out at 8.15. The value for `Cc1c(CNc2ccc(C(=O)O)cc2)ccc2nc(N)nc(N)c12` was 7.96; that for `Nc1nc(S)nc2ccc(Sc3ccc4ccccc4c3)cc12` was 4.69; that for `CCOC(=O)c1ccc(CNc2ccc3nc(N)nc(N)c3c2C)cc1` was 8.85.

The record behind these values is ChEMBL document CHEMBL3272349, “Quantitative structure-activity relationships of antimalarial and dihydrofolate reductase inhibition by quinazolines and 5-substituted benzyl-2,4-diaminopyrimidines” (J Med Chem, 1977).
